Patent US20250197387A1, “BCL-XL DEGRADERS AND USES THEREOF” (Kymera Therapeutics, Inc., priority 2021, published 2025)

What was measured:
BCL-XL = target: T1, BCL-XL (Homo sapiens, UniProt Q07817); assay: Bcl-xL ELISA degradation in MOLT-4 cells, 6 h; type: cell-based; conditions: for DC50: read-out: Bcl-xL ELISA in MOLT-4 degradation 6 h: Mean external-Abs DC50
T1 construct: endogenous in cells; host or cells: MOLT-4
Experimental: The letter codes for BCL-XL DC50 include: A (<0.01 μM); B (0.01-0.1 μM); C (>[…]); D (>0.5-1.0 μM); and E (>1.0 μM). The letter codes for Dmax % include A (>75%); B (50 to 75%); C (<50%).

MOLT-4 cells = assay: CTG (CellTiter-Glo) cell viability assay, MOLT-4; type: cell-based; conditions: Homo sapiens, MOLT-4, 72 h, 3 day incubation, read-out: CTG Cell Viability Assay - MOLT-4 3 day: Average external-IC50
Experimental: Compound-mediated viability effect on MOLT-4 and Caki-2 was quantitatively determined using the CellTiter-Glo® Luminescent Cell Viability Assay kit from Promega (Catalog number G7570) following manufacturer's recommended procedures. Briefly, MOLT-4 and Caki-2 cells were seeded into 384 well plates (Grenier Bio-One, Catalog number 781080) with a density of 10,000 cells per well. Compounds were then added to the assay plate with final top concentration of 10 μM and 1:3 dilution series with total of 9 doses. The final DMSO concentration is normalized to 0.2%. The assay plates were incubated at 37° C., for 3 days under 5% CO2. Then the assay plate was equilibrated at room temperature for 10 minutes. To determine cell viability, 30 uL CellTiter Glo reagent was added to each well and the assay plate was centrifuged at 1000 rpm for 30 second, incubated at room temperature for 10 min, and analyzed by detecting the luminescence using a multimode plate reader (EnVision 2105, PerkinElmer). The data was then analyzed by software Prism 7.0 from GraphPad and the dose response curves are fit using a three-parameter logistic equation to calculate IC50.
The letter codes for MOLT-4 IC50 include: A (<0.1 μM); B (0.1-1.0 μM); C (>1.0-3.0 μM); and D (>3.0 μM). The letter codes for Caki-2 IC50 include: A (<0.1 μM); B (0.1-1.0 μM); C (>1.0-10.0 μM); and D (>10.0 μM).

T1 sequence (Q07817 whole entry): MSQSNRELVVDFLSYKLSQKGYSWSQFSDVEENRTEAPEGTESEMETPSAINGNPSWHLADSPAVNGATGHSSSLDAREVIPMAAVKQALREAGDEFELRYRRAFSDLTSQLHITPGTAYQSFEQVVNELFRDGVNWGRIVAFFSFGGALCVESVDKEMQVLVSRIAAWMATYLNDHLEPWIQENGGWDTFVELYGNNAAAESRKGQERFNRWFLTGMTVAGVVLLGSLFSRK

| Dmax (BCL-XL) [%] | DC50 (BCL-XL) [nM] | IC50 (MOLT-4 cells) [nM] | SMILES |
| --- | --- | --- | --- |
| < 50 | > 1000 | 1000 to 3000 | Cc1ncsc1-c1ccc([C@H](C)NC(=O)[C@@H]2C[C@@H](O)CN2C(=O)[C@@H](NC(=O)C2CCN(c3ccc(S(=O)(=O)NC(=O)c4nc(N5CCc6cccc(C(=O)Nc7nc8ccccc8s7)c6C5)ccc4-c4cccc(OC(C)C)c4C)cc3)CC2)C(C)(C)C)cc1 [I-305] |
| > 75 | 10 to 100 | 100 to 1000 | Cc1ncsc1-c1ccc([C@H](C)NC(=O)[C@@H]2C[C@@H](O)CN2C(=O)[C@@H](c2cc(N3CCN(c4ccc(S(=O)(=O)NC(=O)c5nc(N6CCc7cccc(C(=O)Nc8nc9ccccc9s8)c7C6)ccc5-c5cnn(CC6CCCCC6)c5C)cc4)CC3)no2)C(C)C)cc1 [I-214] |
| < 50 | > 1000 | 1000 to 3000 | Cc1ncsc1-c1ccc([C@H](C)NC(=O)[C@@H]2C[C@@H](O)CN2C(=O)[C@@H](c2cc(OC3CCN([C@H]4CC[C@H](NC(=O)c5nc(N6CCc7cccc(C(=O)Nc8nc9ccccc9s8)c7C6)ccc5-c5cnn(CC6CCCCC6)c5C)CC4)CC3)no2)C(C)C)cc1 [I-313] |
| < 50 | > 1000 | > 3000 | Cc1ncsc1-c1ccc([C@H](C)NC(=O)[C@@H]2C[C@@H](O)CN2C(=O)[C@@H](NC(=O)CCCCN(C)CCCCNC(=O)c2nc(N3CCc4cccc(C(=O)Nc5nc6ccccc6s5)c4C3)ccc2-c2cnn(CC3CCCCC3)c2C)C(C)(C)C)cc1 [I-221] |
| < 50 |  | > 3000 | Cc1ncsc1-c1ccc([C@H](C)NC(=O)[C@@H]2C[C@@H](O)CN2C(=O)[C@@H](NC(=O)CCCCCCCOc2nc(N3CCc4cccc(C(=O)Nc5nc6ccccc6s5)c4C3)ccc2-c2cnn(CC3CCCCC3)c2C)C(C)(C)C)cc1 [I-218] |
| < 50 | > 1000 | 100 to 1000 | Cc1ncsc1-c1ccc(CNC(=O)[C@@H]2C[C@@H](O)CN2C(=O)[C@@H](NC(=O)C2(F)CC2)C(C)(C)C)c(CCCN2CCN(CC[C@H](CSc3ccccc3)Nc3ccc(S(=O)(=O)NC(=O)c4ccc(N5CCN(CC6=C(c7ccc(Cl)cc7)CCC(C)(C)C6)CC5)cc4)cc3S(=O)(=O)C(F)(F)F)CC2)c1 [I-211] |
| < 50 | > 1000 | 1000 to 3000 | Cc1ncsc1-c1ccc(CNC(=O)[C@@H]2C[C@@H](O)CN2C(=O)[C@@H](NC(=O)C2(F)CC2)C(C)(C)C)c(OCC2CN(C3CCC(NC(=O)c4nc(N5CCc6cccc(C(=O)Nc7nc8ccccc8s7)c6C5)ccc4-c4cnn(CC5CCCCC5)c4C)CC3)C2)c1 (stereo partly shown) [I-216] |
| < 50 |  | 1000 to 3000 | Cc1ncsc1-c1ccc(CNC(=O)[C@@H]2C[C@@H](O)CN2C(=O)[C@@H](NC(=O)C2(F)CC2)C(C)(C)C)c(OCCCCCCNCc2nc(N3CCc4cccc(C(=O)Nc5nc6ccccc6s5)c4C3)ccc2-c2cnn(CC3CCCCC3)c2C)c1 [I-222] |
|  |  | < 100 | Cc1ncsc1-c1ccc(CNC(=O)[C@@H]2C[C@@H](O)CN2C(=O)[C@@H](NC(=O)C2(F)CC2)C(C)(C)C)c(OCC(C)N2CCN(CC[C@H](CSc3ccccc3)Nc3ccc(S(=O)(=O)NC(=O)c4ccc(N5CCN(CC6=C(c7ccc(Cl)cc7)CCC(C)(C)C6)CC5)cc4)cc3S(=O)(=O)C(F)(F)F)CC2)c1 (stereo partly shown) [I-155] |
|  |  | 1000 to 3000 | Cc1ncsc1-c1ccc([C@H](C)NC(=O)[C@@H]2C[C@@H](O)CN2C(=O)[C@@H](NC(=O)C2(F)CC2)C(C)(C)C)c(OCCN2CCN(CC[C@H](CSc3ccccc3)Nc3ccc(S(=O)(=O)NC(=O)c4ccc(N5CCN(CC6=C(c7ccc(Cl)cc7)CCC(C)(C)C6)CC5)cc4)cc3S(=O)(=O)C(F)(F)F)CC2)c1 [I-154] |
|  |  | > 3000 | Cc1ncsc1-c1ccc(CNC(=O)[C@@H]2C[C@@H](O)CN2C(=O)[C@@H](NC(=O)C2(F)CC2)C(C)(C)C)c(OCC(=O)N(C)CC[C@H](CSc2ccccc2)Nc2ccc(S(=O)(=O)NC(=O)c3ccc(N4CCN(CC5=C(c6ccc(Cl)cc6)CCC(C)(C)C5)CC4)cc3)cc2S(=O)(=O)C(F)(F)F)c1 [I-161] |
|  |  | 100 to 1000 | Cc1ncsc1-c1ccc([C@H](C)NC(=O)[C@@H]2C[C@@H](O)CN2C(=O)[C@@H](NC(=O)COC2CCN(CCNC(=O)c3nc(N4CCc5cccc(C(=O)Nc6nc7ccccc7s6)c5C4)ccc3-c3cnn(CC4CCCCC4)c3C)CC2)C(C)(C)C)cc1 [I-163] |
| 50 to 75 | 100 to 500 | 100 to 1000 | Cc1ncsc1-c1ccc(CNC(=O)[C@@H]2C[C@@H](O)CN2C(=O)[C@@H](NC(=O)C2(F)CC2)C(C)(C)C)c(OC2CCN(CCNC(=O)c3nc(N4CCc5cccc(C(=O)Nc6nc7ccccc7s6)c5C4)ccc3-c3cnn(CC4CCCCC4)c3C)CC2)c1 [I-215] |
| > 75 | 10 to 100 | 100 to 1000 | Cc1ncsc1-c1ccc(CNC(=O)[C@@H]2C[C@@H](O)CN2C(=O)[C@@H](NC(=O)C2(F)CC2)C(C)(C)C)c(OCCc2ccc(S(=O)(=O)NC(=O)c3nc(N4CCc5cccc(C(=O)Nc6nc7ccccc7s6)c5C4)ccc3-c3cnn(CC4CCCCC4)c3C)cc2)c1 [I-219] |
|  |  | 100 to 1000 | Cc1ncsc1-c1ccc([C@H](C)NC(=O)[C@@H]2C[C@@H](O)CN2C(=O)[C@@H](NC(=O)CN2CCN(CCNC(=O)c3nc(N4CCc5cccc(C(=O)Nc6nc7ccccc7s6)c5C4)ccc3-c3cnn(CC4CCCCC4)c3C)CC2)C(C)(C)C)cc1 [I-164] |
|  |  | 100 to 1000 | Cc1ncsc1-c1ccc(CNC(=O)[C@@H]2C[C@@H](O)CN2C(=O)[C@@H](NC(=O)C2(F)CC2)C(C)(C)C)c(OCCN2CCN(CC[C@H](CSc3ccccc3)Nc3ccc(S(=O)(=O)NC(=O)c4csc(N5CCc6cccc(C(=O)Nc7nc8ccccc8s7)c6C5)n4)cc3S(=O)(=O)C(F)(F)F)CC2)c1 [I-167] |
|  |  | 100 to 1000 | Cc1ncsc1-c1ccc([C@H](C)NC(=O)[C@@H]2C[C@@H](O)CN2C(=O)[C@H](NC(=O)CCCCCCCS(=O)(=O)NC(=O)c2nc(N3CCc4cccc(C(=O)Nc5nc6ccccc6s5)c4C3)ccc2-c2cnn(CC3CCOCC3)c2C)C(C)(C)C)cc1 [I-166] |
|  |  | 100 to 1000 | Cc1ncsc1-c1ccc([C@@H](C)NC(=O)[C@@H]2C[C@@H](O)CN2C(=O)[C@@H](NC(=O)CCCCCC(=O)N(C)CCCC2(Cn3ncc(-c4ccc(N5CCc6cccc(C(=O)Nc7nc8ccccc8s7)c6C5)nc4C(=O)O)c3C)CCCCC2)C(C)(C)C)cc1 [I-162] |
|  |  | 100 to 1000 | Cc1ncsc1-c1ccc(CNC(=O)[C@@H]2C[C@@H](O)CN2C(=O)[C@@H](NC(=O)C2(F)CC2)C(C)(C)C)c(OCCCCC(=O)N2CCN(CCCC3(Cn4ncc(-c5ccc(N6CCc7cccc(C(=O)Nc8nc9ccccc9s8)c7C6)nc5C(=O)O)c4C)CCCCC3)CC2)c1 [I-169] |
|  |  | 100 to 1000 | Cc1ncsc1-c1ccc([C@H](C)NC(=O)[C@@H]2C[C@@H](O)CN2C(=O)C(c2cc(N3CC4(CCN(CCNC(=O)c5nc(N6CCc7cccc(C(=O)Nc8nc9ccccc9s8)c7C6)ccc5-c5cnn(CC6CCCCC6)c5C)CC4)C3)no2)C(C)C)cc1 (stereo partly shown) [I-165] |
| > 75 | 10 to 100 | 100 to 1000 | Cc1ncsc1-c1ccc([C@H](C)NC(=O)[C@@H]2C[C@@H](O)CN2C(=O)[C@@H](NC(=O)Cc2ccc(S(=O)(=O)NC(=O)c3nc(N4CCc5cccc(C(=O)Nc6nc7ccccc7s6)c5C4)ccc3-c3cnn(CC4CCCCC4)c3C)cc2)C(C)(C)C)cc1 [I-287] |
| 50 to 75 | 10 to 100 | 100 to 1000 | Cc1ncsc1-c1ccc([C@H](C)NC(=O)[C@@H]2C[C@@H](O)CN2C(=O)[C@@H](c2cc(OCC3CCN(CCNC(=O)c4nc(N5CCc6cccc(C(=O)Nc7nc8ccccc8s7)c6C5)ccc4-c4cnn(CC5CCCCC5)c4C)CC3)no2)C(C)C)cc1 [I-289] |
|  |  | < 100 | Cc1ncsc1-c1ccc([C@H](C)NC(=O)[C@@H]2C[C@@H](O)CN2C(=O)[C@@H](NC(=O)CCCCCCCCC(=O)N(C)CC#Cc2ccc(OCCCc3ccc(N4CCc5cccc(C(=O)Nc6nc7ccccc7s6)c5C4)nc3C(=O)O)c(F)c2)C(C)(C)C)cc1 [I-148] |
|  |  | 100 to 1000 | Cc1ncsc1-c1ccc([C@@H](CC(=O)N(C)CCCCCC(=O)N2CCN(CC[C@H](CSc3ccccc3)Nc3ccc(S(=O)(=O)NC(=O)c4ccc(N5CCN(CC6=C(c7ccc(Cl)cc7)CCC(C)(C)C6)CC5)cc4)cc3S(=O)(=O)C(F)(F)F)CC2)NC(=O)[C@@H]2C[C@@H](O)CN2C(=O)[C@@H](NC(=O)C2(F)CC2)C(C)(C)C)cc1 [I-159] |
|  |  | 1000 to 3000 | Cc1ncsc1-c1ccc([C@H](C)NC(=O)[C@@H]2C[C@@H](O)CN2C(=O)[C@@H](NC(=O)N2CC(CN3CCC(CNC(=O)c4nc(N5CCc6cccc(C(=O)Nc7nc8ccccc8s7)c6C5)ccc4-c4cnn(CC5CCCCC5)c4C)CC3)C2)C(C)(C)C)cc1 [I-153] |
|  |  | 100 to 1000 | Cc1ncsc1-c1ccc([C@H](C)NC(=O)[C@@H]2C[C@@H](O)CN2C(=O)[C@@H](NC(=O)CCCC(=O)N(C)CCCC2(Cn3ncc(-c4ccc(N5CCc6cccc(C(=O)Nc7nc8ccccc8s7)c6C5)nc4C(=O)O)c3C)CCCCC2)C(C)(C)C)cc1 [I-150] |
|  |  | > 3000 | Cc1ncsc1-c1ccc([C@H](C)NC(=O)[C@@H]2C[C@@H](O)CN2C(=O)[C@@H](NC(=O)CCCCCC(=O)N2CCN(CC[C@H](CSc3ccccc3)Nc3ccc(S(=O)(=O)NC(=O)c4cccc(N5CCc6cccc(C(=O)Nc7nc8ccccc8s7)c6C5)n4)cc3S(=O)(=O)C(F)(F)F)CC2)C(C)(C)C)cc1 [I-160] |
